# Like-named read-outs stand apart in the source and are kept apart here.
# Biological target: T1, KSP motor domain (Homo sapiens, UniProt P52732)
# T1 sequence (P52732 18-359 limits assumed): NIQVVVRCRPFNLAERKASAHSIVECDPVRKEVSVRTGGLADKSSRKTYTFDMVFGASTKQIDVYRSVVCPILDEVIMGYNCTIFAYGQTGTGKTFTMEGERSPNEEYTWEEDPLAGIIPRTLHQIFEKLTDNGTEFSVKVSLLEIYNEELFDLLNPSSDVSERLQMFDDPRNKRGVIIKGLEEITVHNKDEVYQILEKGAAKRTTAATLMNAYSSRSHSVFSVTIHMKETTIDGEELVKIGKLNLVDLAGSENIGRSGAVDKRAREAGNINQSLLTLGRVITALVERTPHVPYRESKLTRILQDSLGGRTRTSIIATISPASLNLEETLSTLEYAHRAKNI
# Assay: biochemical
# [1] = KSP inhibitory activity, end-point assay, class symbols (Table 1), read-out: IC50
# [2] = exact IC50 values, end-point assay (Table 2), read-out: IC50
Compound,IC50 [1],further results
CCC(C)(C)C1CCc2nc3sc(-c4nn[nH]n4)cc3cc2C1 (stereo not shown) [Example 72],1000 to 10000 nM,–
"CC(C)(C)C1CCc2nc3sc(C(=O)NC(CN)c4ccc(C(N)=O)cc4)cc3cc2C1 (stereo not shown) [Example 224, 6-tert-butyl-5,6,7,8-tetrahydrothieno[2,3-b]quinoline-2-carboxylic acid [2-amino-1-(4-carbamoylphenyl)ethyl]amide]",< 100 nM,–
CCCC(C)(C)C1CCc2nc3sc(C#N)c(N)c3cc2C1 (stereo not shown) [Example 10],100 to 1000 nM,–
CC(C)(C)C1CCc2nc3sc(C(=O)N[C@@H](Cc4ccccc4)C(=N)N)cc3cc2C1 (stereo partly shown) [Example 173],1000 to 10000 nM,–
CC(C)(C)C(C)(C)C1CCc2nc3sc(C#N)c(N)c3cc2C1 (stereo not shown) [Example 9],1000 to 10000 nM,–
"CC(C)(C)C1CCc2nc3sc(C(=O)NC(CNCCO)c4cccc(NC(=O)c5ccco5)c4)cc3cc2C1 (stereo not shown) [Example 264, 6-tert-butyl-5,6,7,8-tetrahydrothieno[2,3-b]quinoline-2-carboxylic acid [1-{3-[(furan-2-carbonyl)amino]phenyl}-2-(2-hydroxyethylamino)ethyl]amide]",< 100 nM,–
CC(C)(C)C1CCc2nc3sc(C(=O)N[C@H]4CCC[C@@H]4O)cc3cc2C1 (stereo partly shown) [Example 86],1000 to 10000 nM,–
"CC(=O)Nc1cccc(C(CN)NC(=O)c2cc3cc4c(nc3s2)CCC(C(C)(C)C)C4)c1 (stereo not shown) [Example 222, 6-tert-butyl-5,6,7,8-tetrahydrothieno[2,3-b]quinoline-2-carboxylic acid [1-(3-acetylaminophenyl)-2-aminoethyl]amide]",< 100 nM,–
CC(C)(C)C1CCc2nc3sc(CC(N)=O)cc3cc2C1 (stereo not shown) [Example 149],1000 to 10000 nM,–
Cc1cc(C(=O)Nc2cccc([C@@H](CN)NC(=O)c3cc4cc5c(nc4s3)CC[C@@H](C(C)(C)C)C5)c2)n[nH]1 [Example 242],< 100 nM,–
Cn1ncc(C(=O)Nc2cccc([C@@H](CN)NC(=O)c3cc4cc5c(nc4s3)CC[C@@H](C(C)(C)C)C5)c2)c1C(F)(F)F [Example 245],< 100 nM,–
"CC(C)[C@@H](CN)NC(=O)c1cc2cc3c(nc2s1)CCC(C(C)(C)C)C3 (stereo partly drawn) [Example 175, 6-tert-butyl-5,6,7,8-tetrahydrothieno[2,3-b]quinoline-2-carboxylic acid [(1S)-1-aminomethyl-2-methylpropyl)amide]",1000 to 10000 nM,–
CC1(C2CCc3nc4sc(C#N)c(N)c4cc3C2)CCCC1 (stereo not shown) [Example 6],100 to 1000 nM,–
CC(O)CNC(=O)c1cc2cc3c(nc2s1)CCC(C(C)(C)C)C3 (stereo not shown) [Example 103],1000 to 10000 nM,–
"CC(C)(C)C1CCc2nc3sc(C(=O)N[C@H](CO)Cc4ccc(O)cc4)cc3cc2C1 (stereo partly drawn) [Example 161, 6-tert-Butyl-5,6,7,8-tetrahydrothieno[2,3-b]quinoline-2-carboxylic acid [2-hydroxy-(1S)-1-(4-hydroxybenzyl)ethyl]amide]",> 10000 nM,–
CC(C)(C)C1CCc2nc3sc(C(=O)N[C@H](CO)Cc4ccccc4)cc3cc2C1 (stereo partly shown) [Example 159],> 10000 nM,–
CC(C)(C)CC1CCc2nc3sc(C#N)c(N)c3cc2C1 (stereo not shown) [Example 25],100 to 1000 nM,–
CC(C)(C)C1CCCc2nc3sc(C#N)c(N)c3cc2C1 (stereo not shown) [Example 40],< 100 nM,IC50 [2]: 60 nM
"CC[C@@H](C#N)NC(=O)c1cc2cc3c(nc2s1)CCC(C(C)(C)C)C3 (stereo partly drawn) [Example 166, 6-tert-Butyl-5,6,7,8-tetrahydrothieno[2,3-b]quinoline-2-carboxylic acid [(1S)-1-cyanopropyl)amide]",> 10000 nM,–

Compound,IC50 [1],further results
CC(C)(C)C1CCc2nc3sc(C(=O)NC(CO)C(N)=O)cc3cc2C1 (stereo not shown) [Example 100],100 to 1000 nM,–
"CC1Cc2nc3sc(C#N)cc3cc2CC1C(C)(C)C (stereo not shown) [Example 203, 6-tert-Butyl-7-methyl-5,6,7,8-tetrahydro-thieno[2,3,-b]quinoline-2-carbonitrile]",100 to 1000 nM,–
"CC(C)(C)C1CCc2nc3sc(C(=O)NCCCN4CCCC4=O)cc3cc2C1 (stereo not shown) [Example 196, 6-(1,1-Dimethylethyl)-5,6,7,8-Tetrahydro-N-[3-(2-oxo-1-Pyrrolidinyl)propyl]thieno[2,3-b]quinoline-2-Carboxamide]",1000 to 10000 nM,–
CC(C)(C)C1CCc2nc3sc(CN)cc3cc2C1 (stereo not shown) [Example 153],1000 to 10000 nM,–
CC(C)(C)C1CCCc2nc3sc(C#N)cc3cc2C1 (stereo not shown) [Example 60],< 100 nM,–
CN(C)C(=O)c1cc2cc3c(nc2s1)CCC(C(C)(C)C)C3 (stereo not shown) [Example 80],> 10000 nM,–
N#Cc1sc2nc3c(cc2c1N)CCCC3 [Example 45],> 10000 nM,–
"CC1Cc2nc3sc(C#N)c(N)c3cc2CC1C(C)(C)C (stereo not shown) [Example 202, 3-Amino-6-tert-butyl-7-methyl-5,6,7,8-tetrahydrothieno[2,3-b]quinoline-2-carbonitrile]",100 to 1000 nM,–
"CC(C)(C)C1CCc2nc3sc(C(=O)NC(CN)c4cccc(NC(=O)c5cnccn5)c4)cc3cc2C1 (stereo not shown) [Example 227, 6-tert-Butyl-5,6,7,8-tetrahydrothieno[2,3-b]quinoline-2-carboxylic acid (2-amino-1-{3-[(pyrazine-2-carbonyl)amino]phenyl}ethyl)amide]",< 100 nM,IC50 [2]: 21 nM
"CC(C)(C)C1CCc2nc3sc(C(N)=O)c(N)c3cc2C1 (stereo not shown) [Example 118, 3-Amino-6-tert-butyl-5,6,7,8-tetrahydrothieno[2,3-b]quinoline-2-carboxylic acid amide]",1000 to 10000 nM,–
CC[C@H](NC(=O)c1cc2cc3c(nc2s1)CCC(C(C)(C)C)C3)C(=N)N (stereo partly shown) [Example 170],100 to 1000 nM,–
CC(C)(C)[C@@H]1CCc2nc3sc(C(=O)N[C@H](CN)c4cccc(NC(=O)c5nccnc5N)c4)cc3cc2C1 [Example 261],< 100 nM,–
CC1(C)Cc2nc3sc(C#N)c(N)c3cc2C(C)(C)C1 [Example 48],> 10000 nM,–
CC(C)(C)[C@@H]1CCc2nc3sc(C(=O)N[C@H](CN)c4cccc(NC(=O)c5ncc[nH]5)c4)cc3cc2C1 [Example 247],< 100 nM,–
Cc1[nH]ncc1C(=O)Nc1cccc([C@@H](CN)NC(=O)c2cc3cc4c(nc3s2)CC[C@@H](C(C)(C)C)C4)c1 [Example 243],< 100 nM,–
COC(=O)[C@H]1C[C@@H](O)CN1C(=O)c1cc2cc3c(nc2s1)CCC(C(C)(C)C)C3 (stereo partly shown) [Example 92],> 10000 nM,–
"CC(C)(C)[C@@H]1CCc2nc3sc(C(=O)N[C@H](CN)c4cccc(NCc5ccncc5)c4)cc3cc2C1 [Example 281, 6(R)-tert-Butyl-5,6,7,8,-tetrahydro-thieno[2,3-b]quinoline-2-carboxylic acid (2(S)-amino-1-{3-[(pyridin-4-ylmethyl)-amino]-phenyl}-ethyl)-amide]",< 100 nM,–
Cn1cnc(C(=O)Nc2cccc([C@@H](CN)NC(=O)c3cc4cc5c(nc4s3)CC[C@@H](C(C)(C)C)C5)c2)c1 [Example 249],< 100 nM,–
"CSc1nc2cc3c(nc2s1)CCC(C(C)(C)C)C3 (stereo not shown) [Example 129, 7-tert-butyl-2-methylsulfanyl-5,6,7,8-tetrahydrothiazolo[5,4-b]quinoline]",> 10000 nM,–

Compound,IC50 [1],further results
CC(C)(C)C1CCc2cc3cc(C#N)sc3nc2CC1 (stereo not shown) [Example 61],1000 to 10000 nM,–
Cn1nc(C(F)(F)F)c(C(=O)Nc2cccc([C@@H](CN)NC(=O)c3cc4cc5c(nc4s3)CC[C@@H](C(C)(C)C)C5)c2)c1Cl [Example 246],< 100 nM,–
CC(CO)NC(=O)c1cc2cc3c(nc2s1)CCC(C(C)(C)C)C3 (stereo not shown) [Example 82],1000 to 10000 nM,–
CC[C@@H](CO)NC(=O)c1cc2cc3c(nc2s1)CCC(C(C)(C)C)C3 (stereo partly shown) [Example 158],> 10000 nM,–
Cc1cc(C(=O)Nc2cccc([C@@H](CN)NC(=O)c3cc4cc5c(nc4s3)CC[C@@H](C(C)(C)C)C5)c2)no1 [Example 229],< 100 nM,–
CC(C)C(C)C1CCc2nc3sc(C#N)c(N)c3cc2C1 (stereo not shown) [Example 30],100 to 1000 nM,–
"CC(C)(C)C1CCc2nc3sc(S(N)(=O)=O)cc3cc2C1 (stereo not shown) [Example 123, 6-tert-Butyl-5,6,7,8-tetrahydrothieno[2,3-b]quinoline-2-sulfonic acid amide]",100 to 1000 nM,–
CC(C)(C)C1CCc2nc3sc(C(=O)NCc4ccccc4)cc3cc2C1 (stereo not shown) [Example 78],> 10000 nM,–
CC(C)(C)C1CCc2nc3sc(CCl)cc3cc2C1 (stereo not shown) [Example 145],100 to 1000 nM,–
"CC(C)(C)C1CCc2nc3sc(-c4ncc[nH]4)cc3cc2C1 (stereo not shown) [Example 181, 6-tert-Butyl-2-(1H-imidazol-2-yl)-5,6,7,8-tetrahydrothieno[2,3-b]quinoline]",100 to 1000 nM,–
CCCCC1CCc2nc3sc(C#N)c(N)c3cc2C1 (stereo not shown) [Example 32],> 10000 nM,–
"CCOC(=O)c1sc2nc3c(cc2c1N)CC([Si](C)(C)C)CC3 (stereo not shown) [Example 187, Ethyl 3-Amino-5,6,7,8-Tetrahydro-6-(Trimethylsilyl)thieno[2,3-b]quinoline-2-Carboxylate]",–,"IC50 (IC50 (nM), KSP inhibitory activity, end-point assay, class symbols (Table 1)): > 10000 nM"
CC(C)(C)C1CCc2nc3sc(C(=O)N[C@@H](Cc4ccc(O)cc4)C(=N)N)cc3cc2C1 (stereo partly shown) [Example 174],1000 to 10000 nM,–
CC(C)(C)C1CCc2nc3sc(C(=O)N[C@H](C#N)c4ccccc4)cc3cc2C1 (stereo partly shown) [Example 165],> 10000 nM,–
"CC(C)(C)C1CCc2nc3sc(S(C)(=O)=O)c(O)c3cc2C1 (stereo not shown) [Example 121, 6-tert-Butyl-2-methanesulfonyl-5,6,7,8-tetrahydrothieno[2,3-b]quinolin-3-ol]",> 10000 nM,–
"CC(C)(C)C1CCc2nc3sc(C#N)cc3cc2C1 (single isomer, unassigned) [Example 62]",100 to 1000 nM,–
"CC(C)(C)C1CCc2nc3sc(C(=O)N[C@H](CN)c4cccc(-c5ccccc5)c4)cc3cc2C1 (stereo partly drawn) [Example 211, 6-tert-butyl-5,6,7,8-tetrahydro-thieno[2,3-b]quinoline-2-carboxylic acid [(1S)-2-amino-1-biphenyl-3-yl-ethyl)-amide]",100 to 1000 nM,–
CC(CO)NC(=O)c1cc2cc3c(nc2s1)CCC(C(C)(C)C)C3 (stereo not shown) [Example 76],1000 to 10000 nM,–

# — patent US20060247320A1, “Compounds for inhibiting KSP kinesin activity” (priority 2005, published 2006)
